Patent US6156724A, “Uses of didemnins as immunomodulating agents” (priority 1998, dated 2000)
Read-outs that look alike come from different tables or passages of the source. Numbered stars: 1 amine (or outer) side, 2 acyl side, 3 side chain; on linkers, the order of the positions; unused ones are H or OH. Bridge positions count the residues as written; N and C are the ends. Square brackets hold non-standard residues; d marks the D form. Peptide text beside a SMILES is read from it. X1 = CC[C@H](C)[C@@H](N[*:1])[C@@H](O)CC(=O)O[C@H](C(=O)[C@H](C)C(=O)[*:2])C(C)C; NMeY = CN[C@@H](Cc1ccc(O)cc1)C(=O)O; dNMeL = CN[C@H](CC(C)C)C(=O)O; pGlu = O=C1CC[C@@H](C(=O)O)N1; Lac = C[C@H](O)C(=O)O

Tests used:
[1] = system: Balb/c splenocytes (resting lymphocytes); experiment: Lymphocyte viability (LcV) assay; format: cell-based, murine; conditions: unstimulated Balb/c splenocytes, MTT
Method in brief: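 Resting Balb/c splenocytes incubated with compounds under MLR-equivalent conditions, then pulsed overnight with MTT; formazan dissolved in isopropanol and absorbance read at 570 nm. Viability expressed as percent of untreated Balb/c control metabolic activity, with LC50 interpolated.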

[2] = system: CB6F1 mice grafted with Balb/c splenocytes; experiment: Graft vs host reaction (GVHR) splenomegaly assay; format: in vivo; conditions: for alive day 8 / body weight change day 5 / body weight day 5 (g ± SD) / index (spleen wt. treated/spleen wt. syngenetic injection) / mean group spleen wt. normalized to day 8 body weight: QD 1-7, ip
Method: Three representative compounds didemnin M (38), O-pGlu-DB (37), and didemnin B (1)-showing high (37,38) or moderate (1) in vivo immunosuppressive activity were subsequently evaluated in a multidose assay (0.16,0.016, and 0.0016 mg/kg per injection; qd 1-7) for their in vivo immunosuppressive effects on the GVHR splenomegaly assay.
Three didemnins (didemnin B, didemnin M, and pGlu-didemnin B) were evaluated in a modified Simonsen splenomegaly assay. Briefly, an F1 hybrid host animal is grated with immunocompetent spleen cells from the parent strain. The index used to measure the success of the GVHR is splenomegaly (increased spleen weight due to cellular proliferation of grafted lymphocytes). An index>1.3 (graft index) is considered to be a successful graft rejection of the recipient animal. Immunosuppression is considered as a reduction of the graft index.
On day O, CB6F1 female mice, 4 weeks of age, were grated by intraperitoneal (ip) injection of 50×10^5 splenocytes from BALB/c female mice in high-glucose ([…]) Dulbecco's modified Eagles medium. A syngeneic control group (CB6F1 --CB6F1) was similarly prepared and served as the negative control. Grafted mice were divided into treatment groups containing six mice each. Groups were injected ip with test compound (dissolved in vehicle; 1% abs. EtOH in sterile phosphate-buffered saline) at one of three dose levels (0.16, 0.016, and 0.0016 mg/kg per injection) in a multidose assay, cyclophosphamide (200 mg/kg per injection) or vehicle on days 1-7 (qd 1-7). On day 8 all groups were sacrificed, spleens were excised, and a graft index was calculated for each group by the following formula: [formula]

Rift Valley fever virus = conditions: mouse, in vivo; cited from earlier work
[3] = system: murine splenocytes (Balb/c and C57B1/6); experiment: Two-way mixed lymphocyte reaction (MLR) assay;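 also: proliferation read as tritiated thymidine incorporation into newly made DNA after an overnight pulse, expressed as percent of control activity, IC50 interpolated per compound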
[4] = system: concanavalin A-induced lymphoblasts (Con A splenocytes); experiment: Lymphoblast viability (LbV) assay; conditions: Con A-stimulated splenocytes (lymphoblasts), MTT
[5] = 160 μg/kg per injection (highest dose)
[6] = Balb/c + C57B1/6 splenocytes, 96 h, [3H]thymidine
[7] = read-out: two-way mixed lymphocyte reaction (MLR) suppression MLR, IC50, Balb/c + C57B1/6 splenocytes, 96 h, [3H]thymidine

| Compound | cytoxicity to lymphocytes LcV, LC50 [1] [nM] | cytoxicity to lymphocytes LcV, LC50 ([1]; highest concentration 10 μg/mL) [µg/mL] | suppression of allogeneically induced splenomegaly response compared to control ([2]; 1.6 μg/kg per injection) | alive day 8 ([2]; 0.0016 mg/Kg/day) [%] | body weight change day 5 ([2]; 0.0016 mg/Kg/day) [g] | body weight day 5 (g ± SD) ([2]; 0.0016 mg/Kg/day) [g] | index (spleen wt. treated/spleen wt. syngenetic injection) ([2]; 0.0016 mg/Kg/day) | mean group spleen wt. normalized to day 8 body weight ([2]; 0.0016 mg/Kg/day) | alive day 8 ([2]; 0.016 mg/Kg/day) [%] | body weight change day 5 ([2]; 0.016 mg/Kg/day) [g] | body weight day 5 (g ± SD) ([2]; 0.016 mg/Kg/day) [g] | index (spleen wt. treated/spleen wt. syngenetic injection) ([2]; 0.016 mg/Kg/day) | mean group spleen wt. normalized to day 8 body weight ([2]; 0.016 mg/Kg/day) | alive day 8 ([2]; 0.16 mg/Kg/day) [%] | body weight change day 5 ([2]; 0.16 mg/Kg/day) [g] | body weight day 5 (g ± SD) ([2]; 0.16 mg/Kg/day) [g] | index (spleen wt. treated/spleen wt. syngenetic injection) ([2]; 0.16 mg/Kg/day) | mean group spleen wt. normalized to day 8 body weight ([2]; 0.16 mg/Kg/day) | two-way mixed lymphocyte reaction (MLR) suppression MLR, IC50 [3, 6] [ng/mL] | cytotoxicity to lymphocytes LbV, LC50 [4] [nM] | further results |
| --- | --- | --- | --- | --- | --- | --- | --- | --- | --- | --- | --- | --- | --- | --- | --- | --- | --- | --- | --- | --- | --- |
| CC[C@H](C)[C@H]1NC(=O)[C@@H](NC(=O)[C@@H](CC(C)C)N(C)C(=O)[C@@H]2CCCN2C(=O)C(C)O)[C@@H](C)OC(=O)[C@H](Cc2ccc(OC)cc2)N(C)C(=O)[C@@H]2CCCN2C(=O)[C@H](CC(C)C)NC(=O)[C@@H](C)C(=O)[C@H](C(C)C)OC(=O)C[C@@H]1O (stereo partly drawn) [Compound 1, didemnin B] | 6340 | 7.00 | not effective | 100 | 1.0 | 18.4 ± 0.8 | 1.91 | 6.1 | 100 | 1.0 | 18.2 ± 0.7 | 1.33 | 4.2 | 100 | -1.4 | 15.6 ± 1.6 | 1.24 | 4.0 | 0.46 | 0.6 | suppression of allogeneically induced splenomegaly response compared to control ([2]; 16 μg/kg per injection): 53%; suppression of allogeneically induced splenomegaly response compared to control ([2]; 160 μg/kg per injection): 66%; toxicity to the animals [2, 5]: neither was toxic; protected Rift Valley fever virus-infected mice (Rift Valley fever virus): 90%; IC50 [3, 7]: 0.42 nM |
| CC[C@H](C)[C@H]1NC(=O)[C@@H](NC(=O)[C@@H](CC(C)C)N(C)C(=O)[C@@H]2CCCN2C(=O)[C@H](C)OC(=O)[C@@H]2CCC(=O)N2)[C@@H](C)OC(=O)[C@H](Cc2ccc(OC)cc2)N(C)C(=O)[C@@H]2CCCN2C(=O)[C@H](CC(C)C)NC(=O)[C@@H](C)C(=O)[C@H](C(C)C)OC(=O)C[C@@H]1O [Compound 37, O-Pyroglutamyldidemnin B] ([pGlu][Lac]P[dNMeL]T[X1]LP[NMeY](Me); ester 5-C) | > 8200 | > 10 |  | 100 | 0.4 | 17.4 ± 1.7 | 1.63 | 5.2 | 100 | 0.8 | 17.2 ± 1.5 | 1.76 | 5.6 | 100 | -0.6 | 15.2 ± 1.2 | 1.32 | 4.2 | 0.007 | 0.079 | suppression of allogeneically induced splenomegaly response compared to control ([2]; 160 μg/kg per injection): 54%; toxicity to the animals [2, 5]: neither was toxic; IC50 ([3]; read-out: MLR IC50): 0.0053 nM; IC50 [3, 7]: 0.0053 nM |
| CC[C@H](C)[C@H]1NC(=O)[C@@H](NC(=O)[C@@H](CC(C)C)N(C)C(=O)[C@@H]2CCCN2C(=O)[C@H](C)OC(=O)[C@H](CCC(N)=O)NC(=O)[C@@H]2CCC(=O)N2)[C@@H](C)OC(=O)[C@H](Cc2ccc(OC)cc2)N(C)C(=O)[C@@H]2CCCN2C(=O)[C@H](CC(C)C)NC(=O)[C@@H](C)C(=O)[C@H](C(C)C)OC(=O)C[C@@H]1O [Compound 38, Didemnin M] ([pGlu]Q[Lac]P[dNMeL]T[X1]LP[NMeY](Me); ester 6-C) | > 7410 | > 10 | 61% | 100 | 1.4 | 17.2 ± 1.2 | 1.27 | 4.1 | 100 | -0.2 | 17.8 ± 0.7 | 1.38 | 4.4 | 100 | 1.0 | 16.4 ± 1.0 | 1.54 | 4.9 | 0.001 | 0.25 | toxicity to the animals ([2]; 16 and 160 μg/kg): not toxic |
